Biological target: mitochondrial RNA-polymerase (POLRMT) (Mus musculus, UniProt Q8BKF1)
Test: Homogeneous TR-FRET assay for mitochondrial transcription activity
Assay type: biochemical
Settings: homogeneous TR-FRET assay according to Example 4; activity class
Text: The TR-FRET assay was basically conducted as described in WO2016/193,231A1, especially as described in example 1 (hereby incorporated by reference). With respect to the background of the mitochondrial transcription it is referred to Falkenberg et al. (2002) and Posse et al. (Posse et al., 2015). The method monitors the activity of mitochondrial RNA-polymerase via detection of the formation of its product, a 407 bp long RNA sequence. Detection of the product is facilitated by hybridization of two DNA-oligonucleotide probes to specific and adjacent sequences within the RNA product sequence. Upon annealing of the probes, two fluorophores that are coupled directly to an acceptor nucleotide probe (ATT0647, 5′) or introduced via a coupled streptavidin interacting with a biotinylated donor nucleotide probe on the other side (Europium cryptate, 3′) are brought into sufficient proximity to serve as a fluorescence-donor-acceptor pair as generally described in Walters and Namchuk (2003). Thus, a FRET signal at 665 nm is generated upon excitation at 340 nm.
Briefly, the protocol described here was applied for screening and activity determination in a low-volume 384-well microtiter plate with non-binding surface. For high-throughput application in the 1536-well microtiter plate format, volumes of the reagent mixes were adjusted, maintaining the volumetric ratio. Proteins POLRMT (NM_172551.3), TFAM (NM_009360.4) and TFB2 M (NM_008249.4) were diluted from their stocks to working concentrations of 150 nM, 1.8 μM and 330 nM respectively, in a dilution buffer containing 100 mM Tris-HCl pH 8.0, 200 mM NaCl, 10% (v/v) glycerole, 2 mM glutathione (GSH), 0.5 mM EDTA and 0.1 mg/mL BSA. Protein dilutions and template DNA, comprising a pUC18 plasmid encoding the mitochondrial light strand promoter, restriction linearized proximal to the promoter 3′-end (pUC-LSP), were mixed at the twofold final assay-concentration in a reaction buffer, containing 10 mM Tris-HCl pH 7.5, 10 mM MgCl2, 40 mM NaCl, 2 mM GSH, 0.01% (w/v) Tween-20 and 0.1 mg/mL BSA.
5 μL of this mix were dispensed, depending on the chosen microtiter plate format, using multi-channel pipettes or a Multidrop® dispenser (Thermo Fisher Scientific, Waltham Mass.) into the wells of a microtiter plate and incubated at room temperature (RT) for 10 min. Chemical compounds under scrutiny in the assay were applied using contact-free acoustic droplet-dispensing (Echo520® Labcyte Inc., Sunnyvale Calif.) from 10 mM compound stocks in 100% DMSO, to a final concentration of 10 μM or in serial dilution series of the required concentration range. Equal amounts of DMSO without any compound were added to positive control samples, followed by an incubation step at RT for 10 min.
The enzymatic reaction was started by the addition of 5 μL of a mix of […] in reaction buffer to a final concentration of 500 μM each. No nucleotide mix was added to negative control samples. The content of the wells was mixed using a VarioTeleshaker™ (Thermo Fisher Scientific, Waltham Mass.) at 1,500 rpm for 45 sec after which the microtiter plate was centrifuged at 500×g for 1 min. The samples were incubated for 2 h at RT with humidity control to avoid evaporation. The detection reagents were prepared in a buffer that was composed, such that the enzymatic reaction was terminated due to chelating of Mg-ions and increased ionic strength, containing 50 mM Tris-HCl pH 7.5, 700 mM NaCl, 20 mM EDTA, and 0.01% (w/v) Tween-20. Importantly Eu-cryptate-coupled streptavidin had to be pre-incubated with a 100-fold molar excess of a random sequence oligonucleotide for 10 min at RT in the dark to block unspecific binding of single stranded RNA to the protein. Subsequently, the blocked streptavidin(—Eu) was mixed with the DNA-probes on ice and kept away from light until use. […]

Sequence of mitochondrial RNA-polymerase (POLRMT) (Q8BKF1 42-1207): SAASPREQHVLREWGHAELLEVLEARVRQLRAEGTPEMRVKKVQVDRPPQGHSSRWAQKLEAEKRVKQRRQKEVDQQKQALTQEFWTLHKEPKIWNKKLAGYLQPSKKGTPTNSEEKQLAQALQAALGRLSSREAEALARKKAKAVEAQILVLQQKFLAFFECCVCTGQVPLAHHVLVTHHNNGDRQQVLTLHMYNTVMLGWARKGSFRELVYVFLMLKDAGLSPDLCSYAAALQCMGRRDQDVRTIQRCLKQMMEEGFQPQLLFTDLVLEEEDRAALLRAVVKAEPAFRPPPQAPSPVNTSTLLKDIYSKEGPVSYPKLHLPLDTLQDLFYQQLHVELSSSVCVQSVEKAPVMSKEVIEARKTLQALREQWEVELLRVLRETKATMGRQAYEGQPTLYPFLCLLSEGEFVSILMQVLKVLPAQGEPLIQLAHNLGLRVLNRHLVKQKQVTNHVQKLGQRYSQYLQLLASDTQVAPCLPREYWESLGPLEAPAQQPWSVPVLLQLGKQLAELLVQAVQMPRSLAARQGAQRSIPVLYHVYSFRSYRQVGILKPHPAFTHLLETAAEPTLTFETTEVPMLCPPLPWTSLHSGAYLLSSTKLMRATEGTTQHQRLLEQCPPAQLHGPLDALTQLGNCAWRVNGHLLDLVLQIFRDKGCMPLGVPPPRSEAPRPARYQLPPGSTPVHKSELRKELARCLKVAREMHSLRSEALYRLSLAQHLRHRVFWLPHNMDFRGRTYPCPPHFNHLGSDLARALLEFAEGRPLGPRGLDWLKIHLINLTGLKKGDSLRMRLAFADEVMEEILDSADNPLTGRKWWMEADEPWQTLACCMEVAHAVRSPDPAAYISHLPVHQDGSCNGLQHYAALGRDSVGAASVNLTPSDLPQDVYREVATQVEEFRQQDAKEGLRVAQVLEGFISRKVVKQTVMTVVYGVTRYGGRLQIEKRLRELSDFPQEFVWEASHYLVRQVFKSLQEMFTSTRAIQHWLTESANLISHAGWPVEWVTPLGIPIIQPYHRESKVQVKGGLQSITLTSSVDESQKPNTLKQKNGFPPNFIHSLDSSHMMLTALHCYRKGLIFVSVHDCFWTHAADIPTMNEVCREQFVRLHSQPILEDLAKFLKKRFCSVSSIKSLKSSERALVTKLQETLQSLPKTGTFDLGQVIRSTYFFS

| IC50 | Compound |
| --- | --- |
| 100 to 1000 nM | COC(=O)C1CN(C(=O)[C@@H](C)Oc2ccc3c(-c4ccc(F)cc4Cl)cc(=O)oc3c2)CCN1C (mixture of isomers) [Compound 137, methyl 1-methyl-4-[rac-(2R)-2-[4-(2-chloro-4-fluoro-phenyl)-2-oxo-chromen-7-yl]oxypropanoyl]piperazine-2-carboxylate] |
| 100 to 1000 nM | CC(Oc1ccc2c(-c3ccccc3Cl)cc(=O)oc2n1)C(=O)N1CCC[C@H](C(=O)OC(C)(C)C)C1 (mixture of isomers) [Compound 171, tert-butyl rac-(3S)-1-[2-[4-(2-chlorophenyl)-2-oxo-pyrano[2,3-b]pyridin-7-yl]oxypropanoyl]piperidine-3-carboxylate] |
| < 20 nM | Cc1ccccc1-c1cc(=O)oc2cc(OC(C)C(=O)N3CCC[C@H](C(=O)O)C3)ccc12 (stereo partly drawn) [Compound 3, (3S)-1-[2-[4-(o-tolyl)-2-oxo-chromen-7-yl]oxypropanoyl]piperidine-3-carboxylic acid] |
| < 20 nM | Cc1ccccc1-c1cc(=O)oc2cc(OC(C)C(=O)Nc3ccccn3)ccc12 (centres unmarked) [Compound 4, 2-[4-(o-tolyl)-2-oxo-chromen-7-yl]oxy-N-(2-pyridyl)propanamide] |
| < 20 nM | Cc1ccccc1-c1cc(=O)oc2cc(OC(C)C(=O)N3CCCC3)ccc12 (centres unmarked) [Compound 5, 7-(1-methyl-2-oxo-2-pyrrolidin-1-yl-ethoxy)-4-(o-tolyl)chromen-2-one] |
| < 20 nM | COC(=O)C1CCCN(C(=O)C(C)Oc2ccc3c(-c4ccccc4C)cc(=O)oc3c2)C1 (centres unmarked) [Compound 6, methyl 1-[2-[4-(o-tolyl)-2-oxo-chromen-7-yl]oxypropanoyl]piperidine-3-carboxylate] |
| < 20 nM | COC(=O)C1CCCN(C(=O)C(C)Oc2ccc3c(-c4ccccc4Cl)cc(=O)oc3c2)C1 (centres unmarked) [Compound 7, methyl 1-[2-[4-(2-chlorophenyl)-2-oxo-chromen-7-yl]oxypropanoyl]piperidine-3-carboxylate] |
| < 20 nM | Cc1ccccc1-c1cc(=O)oc2cc(OC(C)C(=O)N3CCCC(S(=O)(=O)O)C3)ccc12 (centres unmarked) [Compound 10, 1-[2-[4-(o-tolyl)-2-oxo-chromen-7-yl]oxypropanoyl]piperidine-3-sulfonic acid] |
| < 20 nM | CC(Oc1ccc2c(-c3ccccc3Cl)cc(=O)oc2c1)C(=O)N1CCCC(S(=O)(=O)O)C1 (centres unmarked) [Compound 11, 1-[2-[4-(2-chlorophenyl)-2-oxo-chromen-7-yl]oxypropanoyl]piperidine-3-sulfonic acid] |
| < 20 nM | CC(Oc1ccc2c(-c3ccccc3Cl)cc(=O)oc2c1)C(=O)N1CCCC1 (centres unmarked) [Compound 13, 4-(2-chlorophenyl)-7-(1-methyl-2-oxo-2-pyrrolidin-1-yl-ethoxy)chromen-2-one] |
| < 20 nM | CCOC(=O)[C@H]1CCCN(C(=O)C(C)Oc2ccc3c(-c4ccccc4Cl)cc(=O)oc3c2)C1 (stereo partly drawn) [Compound 16, ethyl (3S)-1-[2-[4-(2-chlorophenyl)-2-oxo-chromen-7-yl]oxypropanoyl]piperidine-3-carboxylate] |
| < 20 nM | CCOC(=O)[C@H]1CCCN(C(=O)C(C)Oc2ccc3c(-c4ccccc4C)cc(=O)oc3c2)C1 (stereo partly drawn) [Compound 17, ethyl (3S)-1-[2-[4-(o-tolyl)-2-oxo-chromen-7-yl]oxypropanoyl]piperidine-3-carboxylate] |
| < 20 nM | Cc1ccccc1-c1cc(=O)oc2cc(OC(C)C(=O)Nc3ccc(CCO)cc3)ccc12 (centres unmarked) [Compound 19, N-[4-(2-hydroxyethyl)phenyl]-2-[4-(o-tolyl)-2-oxo-chromen-7-yl]oxy-propanamide] |
| < 20 nM | CNS(=O)(=O)C1CCCN(C(=O)C(C)Oc2ccc3c(-c4ccccc4Cl)cc(=O)oc3c2)C1 (centres unmarked) [Compound 20, 1-[2-[4-(2-chlorophenyl)-2-oxo-chromen-7-yl]oxypropanoyl]-N-methyl-piperidine-3-sulfonamide] |
| < 20 nM | Cc1ccccc1-c1cc(=O)oc2cc(OC(C)C(=O)N3CC[C@H](C(=O)O)C3)ccc12 (stereo partly drawn) [Compound 22, (3S)-1-[2-[4-(o-tolyl)-2-oxo-chromen-7-yl]oxypropanoyl]pyrrolidine-3-carboxylic acid] |
| < 20 nM | C[C@@H](Oc1ccc2c(-c3ccccc3Cl)cc(=O)oc2c1)C(=O)N1CCC[C@H](C#N)C1 [Compound 28, (3S)-1-[(2R)-2-[4-(2-chlorophenyl)-2-oxo-chromen-7-yl]oxypropanoyl]piperidine-3-carbonitrile] |
| < 20 nM | C[C@@H](Oc1ccc2c(-c3ccccc3Cl)cc(=O)oc2c1)C(=O)N1CC[C@H](C(=O)O)C1 [Compound 29, (3S)-1-[2-[4-(2-chlorophenyl)-2-oxo-chromen-7-yl]oxypropanoyl]pyrrolidine-3-carboxylic acid] |
| < 20 nM | Cc1ccccc1-c1cc(=O)oc2cc(O[C@H](C)C(=O)N3CCCCC3)ccc12 [Compound 30, 7-[(1R)-1-methyl-2-oxo-2-(1-piperidyl)ethoxy]-4-(o-tolyl)chromen-2-one] |
| < 20 nM | CC(Oc1ccc2c(-c3ccccc3Cl)cc(=O)oc2c1)C(=O)Nc1ccccn1 (centres unmarked) [Compound 31, 2-[4-(2-chlorophenyl)-2-oxo-chromen-7-yl]oxy-N-(2-pyridyl)propanamide] |
| < 20 nM | Cc1ccccc1-c1cc(=O)oc2cc(O[C@H](C)C(=O)N3CCC[C@H](C#N)C3)ccc12 [Compound 32, (3S)-1-[(2R)-2-[4-(o-tolyl)-2-oxo-chromen-7-yl]oxypropanoyl]piperidine-3-carbonitrile] |
| < 20 nM | C[C@@H](Oc1ccc2c(-c3ccccc3Cl)cc(=O)oc2c1)C(=O)N1CCCCC1 [Compound 34, 4-(2-chlorophenyl)-7-[(1R)-1-methyl-2-oxo-2-(1-piperidyl)ethoxy]chromen-2-one] |
| < 20 nM | CC(Oc1ccc2c(-c3ccccc3Cl)cc(=O)oc2c1)C(=O)Nc1ccc(CCO)cc1 (centres unmarked) [Compound 35, 2-[4-(2-chlorophenyl)-2-oxo-chromen-7-yl]oxy-N-[4-(2-hydroxyethyl)phenyl]propanamide] |
| < 20 nM | CC(Oc1ccc2c(-c3ccccc3Cl)cc(=O)oc2c1)C(=O)N1CCCC(c2nn[nH]n2)C1 (centres unmarked) [Compound 39, 4-(2-chlorophenyl)-7-[1-methyl-2-oxo-2-[3-(2H-tetrazol-5-yl)-1-piperidyl]ethoxy]chromen-2-one] |
| < 20 nM | CCOC(=O)C(C)Oc1ccc2c(-c3ccccc3Cl)cc(=O)oc2c1 (centres unmarked) [Compound 40, ethyl 2-[4-(2-chlorophenyl)-2-oxo-chromen-7-yl]oxypropanoate] |
| < 20 nM | Cc1ccccc1-c1cc(=O)oc2cc(OC(C)C(=O)N3CCCC(C#N)C3)ccc12 (centres unmarked) [Compound 41, 1-[2-[4-(o-tolyl)-2-oxo-chromen-7-yl]oxypropanoyl]piperidine-3-carbonitrile] |
| < 20 nM | Cc1ccccc1-c1cc(=O)oc2cc(OC(C)C(=O)N3CCCC(C)(C(=O)O)C3)ccc12 (centres unmarked) [Compound 43, 3-methyl-1-[2-[4-(o-tolyl)-2-oxo-chromen-7-yl]oxypropanoyl]piperidine-3-carboxylic acid] |
| < 20 nM | Cc1ccccc1-c1cc(=O)oc2cc(O[C@H](C)C(=O)N(C)C)ccc12 [Compound 44, (2R)-N,N-dimethyl-2-[4-(o-tolyl)-2-oxo-chromen-7-yl]oxy-propanamide] |
| < 20 nM | C[C@@H](Oc1ccc2c(-c3ccccc3Cl)cc(=O)oc2c1)C(=O)N(C)C [Compound 45, (2R)-2-[4-(2-chlorophenyl)-2-oxo-chromen-7-yl]oxy-N,N-dimethyl-propanamide] |
| < 20 nM | CC(Oc1ccc2c(-c3ccccc3Cl)cc(=O)oc2c1)C(=O)N1CCC[C@@H](C(=O)O)C1 (stereo partly drawn) [Compound 46, (3R)-1-[2-[4-(2-chlorophenyl)-2-oxo-chromen-7-yl]oxypropanoyl]piperidine-3-carboxylic acid] |

Reference: patent US11111238B2, “Coumarin derivatives, processes for their preparation and uses thereof for the treatment of cancer” (Lead Discovery Center GmbH, priority 2017, dated 2021)
